Results: patent US12617837B2, “Composition for use in treatment of allergic diseases” (UNIVERSITY OF TSUKUBA, priority 2019, dated 2026)

How the values were obtained:
[1] = tested on: human IgG1; experiment: Glycan microarray probed with human IgG1 (control of Table 7); type: binding
[2] = molecular target: T1, Clec10a-Fc (Mus musculus, UniProt P49300); experiment: Sugar conjugate (glycan) microarray analysis of Clec10a-Fc (Table 7); type: binding; conditions: for Signal value, Clec10a-Fc: glycan microarray probed with Clec10a-Fc; for Signal value, Clec10a-Fc with EDTA: glycan microarray probed with Clec10a-Fc with EDTA
T1 construct: cloning the extracellular region of mouse Clec10a into a pME18S expression vector; made in house; host or cells: HEK293T cells
T1 sequence (P49300 57-304 limits assumed): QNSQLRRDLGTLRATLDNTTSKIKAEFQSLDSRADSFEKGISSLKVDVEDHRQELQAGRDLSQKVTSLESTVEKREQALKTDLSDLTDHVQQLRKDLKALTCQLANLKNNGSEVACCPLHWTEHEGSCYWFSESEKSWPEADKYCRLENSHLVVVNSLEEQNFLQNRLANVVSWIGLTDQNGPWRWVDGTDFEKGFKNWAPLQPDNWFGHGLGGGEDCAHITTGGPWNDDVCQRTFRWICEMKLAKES
Protocol: A sugar conjugate microarray containing 98 sugar conjugates (Table 3) was prepared according to a known method using a non-contact microarray printing robot (MicroSys 4000; Genomic Solutions).

Signal value, Clec10a-Fc [2]	Signal value, Clec10a-Fc with EDTA [2]	Structure (SMILES)	Signal value, human IgG1 [1]
0	0	CC(=O)N[C@@H]1[C@@H](O)[C@H](O[C@@H]2O[C@H](CO)[C@H](O)[C@H](O)[C@H]2NC(C)=O)[C@@H](CO)O[C@H]1O [LDN]	0
7	0	CC(=O)N[C@@H]1[C@@H](O)[C@H](O[C@@H]2O[C@H](CO)[C@H](O)[C@H](O)[C@H]2O)[C@@H](CO)O[C@H]1O [LN]	0
4850	0	OC[C@H]1O[C@@H](O[C@H]2[C@H](O)[C@@H](O)[C@H](O)O[C@@H]2CO)[C@H](O)[C@@H](O)[C@H]1O [Lac]	0
0	0	CC(=O)N[C@@H]1[C@@H](O[C@@H]2O[C@H](CO)[C@H](O)[C@H](O)[C@H]2O[C@@H]2O[C@@H](C)[C@@H](O)[C@@H](O)[C@@H]2O)[C@H](O[C@@H]2O[C@@H](C)[C@@H](O)[C@@H](O)[C@@H]2O)[C@@H](CO)O[C@H]1O [Leb]	0
2414	0	CC(=O)N[C@@H]1[C@@H](O[C@@H]2O[C@H](CO)[C@H](O)[C@H](O)[C@H]2O)[C@H](O)[C@@H](CO)O[C@H]1O [Lec]	0
0	1	OC[C@H]1O[C@H](O[C@H]2[C@H](O)[C@@H](O)[C@H](O)O[C@@H]2CO)[C@H](O)[C@@H](O)[C@@H]1O [Maltose]	0
45	0	OC[C@H]1O[C@H](OCC2O[C@@H](O)[C@H](O)[C@@H](O)[C@@H]2O)[C@H](O)[C@@H](O)[C@H]1O (stereo partly drawn) [Melibiose]	0
0	0	CC(=O)N[C@H]1[C@H]([C@H](O)[C@H](O)CO)O[C@@](O)(C(=O)O)C[C@@H]1O [Ne̊u5Ac]	0
0	0	O=C(CO)N[C@H]1[C@H]([C@H](O)[C@H](O)CO)O[C@@](O)(C(=O)O)C[C@@H]1O [Ne̊u5Gc]	0
19	3	CC(=O)N[C@H]1[C@H]([C@H](O)[C@H](O)CO)O[C@@](O[C@H](CO)[C@@H](O)[C@@H]2O[C@@](O[C@H](CO)[C@@H](O)[C@@H]3O[C@@](O)(C(=O)O)C[C@H](O)[C@H]3NC(C)=O)(C(=O)O)C[C@H](O)[C@H]2NC(C)=O)(C(=O)O)C[C@@H]1O [Sia3]	0
0	0	CC(=O)N[C@@H]1[C@@H](O[C@@H]2O[C@H](CO)[C@H](O)[C@H](O)[C@H]2O)[C@@H](O)[C@@H](CO[C@]2(C(=O)O)C[C@H](O)[C@@H](NC(C)=O)[C@H]([C@H](O)[C@H](O)CO)O2)O[C@@H]1O [Siaα2-6Core 1]	0

Second part, the molecule before the results:

Structure (SMILES)	Signal value, Clec10a-Fc [2]	Signal value, Clec10a-Fc with EDTA [2]	Signal value, human IgG1 [1]
CC(=O)N[C@@H]1[C@@H](O)[C@H](O[C@@H]2O[C@H](CO)[C@H](O)[C@H](O[C@]3(C(=O)O)C[C@H](O)[C@@H](NC(C)=O)[C@H]([C@H](O)[C@H](O)CO)O3)[C@H]2O)[C@@H](CO)O[C@H]1O [3′SLN]	7	0	0
CC(=O)N[C@H]1[C@H]([C@H](O)[C@H](O)CO)O[C@@](O[C@H]2[C@@H](O)[C@@H](CO)O[C@@H](O[C@H]3[C@H](O)[C@@H](O)[C@H](O)O[C@@H]3CO)[C@@H]2O)(C(=O)O)C[C@@H]1O [3′SL]	5	0	0
CC(=O)N[C@@H]1[C@@H](O[C@@H]2O[C@H](CO)[C@H](O)[C@H](O[C@]3(C(=O)O)C[C@H](O)[C@@H](NC(C)=O)[C@H]([C@H](O)[C@H](O)CO)O3)[C@H]2O)[C@H](O)[C@@H](CO)O[C@H]1O [3′SiaLec]	4	0	0
CC(=O)N[C@H]1[C@H]([C@H](O)[C@H](O)CO)O[C@@](OC[C@H]2O[C@@H](O[C@H]3[C@H](O)[C@@H](O)[C@H](O)O[C@@H]3CO)[C@H](O)[C@@H](O)[C@H]2O)(C(=O)O)C[C@@H]1O [6′SL]	1	0	0
CC(=O)N[C@H]1[C@@H](O[C@@H]2[C@@H](O)[C@H](O)O[C@H](CO)[C@@H]2O)O[C@H](CO)[C@H](O)[C@@H]1O [A-di]	1137	0	0
CC(=O)N[C@@H]1[C@@H](O)[C@H](O[C@@H]2O[C@H](CO)[C@H](O)[C@H](O[C@H]3O[C@H](CO)[C@H](O)[C@H](O)[C@H]3NC(C)=O)[C@H]2O[C@@H]2O[C@@H](C)[C@@H](O)[C@@H](O)[C@@H]2O)[C@@H](CO)O[C@H]1O [A]	0	0	0
CC(=O)N[C@@H]1[C@@H](O)[C@H](O)[C@@H](CO)O[C@H]1O [BGlcNAc]	0	0	205
CC(=O)N[C@@H]1[C@@H](O)[C@H](O[C@@H]2O[C@H](CO)[C@H](O)[C@H](O[C@H]3O[C@H](CO)[C@H](O)[C@H](O)[C@H]3O)[C@H]2O[C@@H]2O[C@@H](C)[C@@H](O)[C@@H](O)[C@@H]2O)[C@@H](CO)O[C@H]1O [B]	0	0	0
CC(=O)N[C@@H]1[C@@H](O[C@@H]2O[C@H](CO)[C@H](O)[C@H](O)[C@H]2O)[C@@H](O)[C@@H](CO[C@@H]2O[C@H](CO)[C@@H](O)[C@H](O)[C@H]2NC(C)=O)O[C@@H]1O [Core2]	4824	0	0
CC(=O)N[C@@H]1[C@@H](O[C@@H]2O[C@H](CO)[C@@H](O)[C@H](O)[C@H]2NC(C)=O)[C@@H](O)[C@@H](CO)O[C@@H]1O [Core3]	0	0	0
CC(=O)N[C@@H]1[C@@H](O[C@@H]2O[C@H](CO)[C@@H](O)[C@H](O)[C@H]2NC(C)=O)[C@@H](O)[C@@H](CO[C@@H]2O[C@H](CO)[C@@H](O)[C@H](O)[C@H]2NC(C)=O)O[C@@H]1O [Core4]	0	0	0
CC(=O)N[C@@H]1[C@@H](O[C@H]2O[C@H](CO)[C@H](O)[C@H](O)[C@H]2O)[C@@H](O)[C@@H](CO)O[C@@H]1O [Core8]	0	0	0
CC(=O)N[C@@H]1[C@@H](O[C@H]2O[C@H](CO)[C@H](O)[C@H](O)[C@H]2NC(C)=O)[C@@H](O)[C@@H](CO)O[C@H]1O [Forssman disaccharide]	0	0	0
C[C@@H]1O[C@@H](O[C@@H]2[C@@H](O)[C@@H](O)[C@@H](CO)O[C@H]2O)[C@@H](O)[C@H](O)[C@@H]1O [Fucα2Gal]	0	0	0
CC(=O)N[C@@H]1[C@@H](O[C@@H]2O[C@@H](C)[C@@H](O)[C@@H](O)[C@@H]2O)[C@H](O)[C@@H](CO)O[C@H]1O [Fucα3GlcNAc]	0	0	0
CC(=O)N[C@@H]1[C@@H](O)[C@H](O[C@@H]2O[C@@H](C)[C@@H](O)[C@@H](O)[C@@H]2O)[C@@H](CO)O[C@H]1O [Fucα4GlcNAc]	0	0	0
OC[C@H]1O[C@H](O[C@H]2C(O)O[C@H](CO)[C@H](O)[C@@H]2O)[C@H](O)[C@@H](O)[C@H]1O (stereo partly drawn) [Galα1-2Gal]	3	0	0
OC[C@H]1O[C@H](O[C@@H]2[C@@H](O)[C@H](O)O[C@H](CO)[C@@H]2O)[C@H](O)[C@@H](O)[C@H]1O [Galα1-3Gal]	144	0	0
CC(=O)N[C@H]1[C@H](O[C@@H]2[C@H](O)[C@@H](O)[C@H](O[C@H]3[C@H](O)[C@@H](O)[C@H](O)O[C@@H]3CO)O[C@@H]2CO)O[C@H](CO)[C@H](O)[C@@H]1O [Gα2]	0	0	0
CC(=O)N[C@@H]1[C@@H](O[C@@H]2O[C@H](CO)[C@H](O)[C@H](O)[C@H]2O[C@@H]2O[C@@H](C)[C@@H](O)[C@@H](O)[C@@H]2O)[C@H](O)[C@@H](CO)O[C@H]1O [H type1]	1	0	0
CC(=O)N[C@@H]1[C@@H](O)[C@H](O[C@@H]2O[C@H](CO)[C@H](O)[C@H](O)[C@H]2O[C@@H]2O[C@@H](C)[C@@H](O)[C@@H](O)[C@@H]2O)[C@@H](CO)O[C@H]1O [H type2]	0	0	0
